From patent US20090176841A1, “NOVEL 6-5 SYSTEM BICYCLIC HE[…] ITS PHAR[…]” (Sanwa Kagaku Kenkyusho Co., Ltd., priority 2006, published 2009)

How the values were obtained:
recombinant human TRα = target: T1, recombinant human TRα (Homo sapiens, UniProt P10827); assay: biochemical; conditions: TR[…] (IC50, nM), displacement of 125I-T3 (0.16 nM)
T1 sequence (P10827 190-410 isoform P10827-2): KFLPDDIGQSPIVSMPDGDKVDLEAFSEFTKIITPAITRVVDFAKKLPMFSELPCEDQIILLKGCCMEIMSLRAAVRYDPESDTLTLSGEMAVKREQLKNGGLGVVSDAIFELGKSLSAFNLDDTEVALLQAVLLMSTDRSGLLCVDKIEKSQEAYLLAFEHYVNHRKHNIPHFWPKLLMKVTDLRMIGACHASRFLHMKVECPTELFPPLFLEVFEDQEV
Source text: (§1) Thyroid Hormone Receptor Binding Test
(§2) (1) Preparation of Fused Protein Having Ligand Binding Region of Thyroid Hormone Receptor
(§3) Human TRα and human TRβ ligand binding domains were expressed in Escherichia coli as a fused protein (recombinant human TRα or recombinant human TRβ) having TRα and TRβ ligand binding domains at a C-terminus of His-Patch Thioredoxin using the His-Patch Thioredoxin fusing protein expressing system (Invitrogen).
(§4) A nucleotide sequence of a region corresponding to the fused protein was confirmed by DNA sequence analysis.
(§5) Escherichia coli by which the fused protein had been subjected to expression inducement were collected by a centrifugation method, and ground using ultrasound to prepare a ground cell liquid containing the fused protein. The ground cell liquid was centrifuged at 15000 rpm for about 30 minutes, and a solution containing the fused protein from the supernatant using a nickel chelating column was obtained. An NAP-10 column was replaced with a binding solution (20 mM, Tris-HCl, 0.15 M NaCl, 8% Glycerol, 0.1% BSA, 1 mM EDTA, 10 mM 2-melcaptethanol). The resulting binding solution containing the fused protein was frozen and stored at −70° C. or lower.
(§6) (2) Binding Affinity for Thyroid Hormone Receptor
(§7) This binding solution (60 μL) was added to all wells of a 96-well plate (MILLIPORE MultiScreen-HV, Cat. No. MANVN4550, Lot. No. F4SN86613). […] 80 μL of SephadexG25 was added to each well of MultiScreen-HV (MILLIPORE, Cat. No. MANVN4550, Lot. No. F4SN86613), the binding solution was added to sufficiently swell, and this was centrifuged at 600×g for 1 minute to prepare a column of SephadexG25. […] Again, 25 μL untreated binding solution was overlaid on the SephadexG25 column, and this was immediately centrifuged at 600×g for 1 minute. […] As an amount of recombinant human TRα or recombinant human TRβ used in the present test, an amount by which proper radioactivity is obtained in a range where an addition amount of the receptor and an amount of the complex in the above test system, was used.
(§8) This was divided by the total complex amount to calculate a binding rate as the following equation:
(§9) Binding rate=remaining complex amount/total complex amount

recombinant human TRβ = target: T2, recombinant human TRβ (Homo sapiens, UniProt P10828); assay: biochemical; conditions: TR[…] (IC50, nM), displacement of 125I-T3 (0.16 nM)
T2 sequence (P10828 244-461): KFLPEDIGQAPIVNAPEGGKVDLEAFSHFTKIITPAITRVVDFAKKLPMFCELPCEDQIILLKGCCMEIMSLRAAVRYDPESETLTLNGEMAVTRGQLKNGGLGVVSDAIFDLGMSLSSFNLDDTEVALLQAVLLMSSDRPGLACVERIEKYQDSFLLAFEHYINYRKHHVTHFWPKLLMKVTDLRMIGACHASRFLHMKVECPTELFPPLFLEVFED
Source text: as §1, §2, §3, §4, §5, §6, §7, §8, §9

Row | SMILES | IC50 (recombinant human TRα) [nM] | IC50 (recombinant human TRβ) [nM]
1 | CC(C)c1cc(Cn2ccc3c(NC(=O)CC(=O)O)cc(Br)cc32)ccc1O [Example 77] | > 10000 | 570
2 | CC(C)c1cc(Cn2ccc3c(NC(=O)CC(=O)O)ccc(Cl)c32)ccc1O [Example 78] | 230 | 36
3 | Cc1ccc(NC(=O)C(=O)O)c2ccn(Cc3ccc(O)c(C(C)C)c3)c12 [Example 79] | 5200 | 130
4 | Cc1ccc(NCCC(=O)O)c2ccn(Cc3ccc(O)c(C(C)C)c3)c12 [Example 82] | 1600 | 1100
5 | Cc1c(C)n(Cc2ccc(O)c(C(C)C)c2)c2cccc(NC(=O)C(=O)O)c12 [Example 83] | 85 | 27
6 | Cc1ccc(NC(=O)C(=O)O)c2cc(C)n(Cc3ccc(O)c(C(C)C)c3)c12 [Example 85] | 24 | 3.1
7 | Cc1ccc(NC(=O)CC(=O)O)c2cc(C)n(Cc3ccc(O)c(C(C)C)c3)c12 [Example 86] | 670 | 16
8 | Cc1ccc(NC(=O)C(F)C(=O)O)c2cc(C)n(Cc3ccc(O)c(C(C)C)c3)c12 (centres unmarked) [Example 88] | 120 | 13
9 | Cc1ccc(NC(=O)C(C)C(=O)O)c2cc(C)n(Cc3ccc(O)c(C(C)C)c3)c12 (centres unmarked) [Example 89] | 870 | 120
10 | Cc1ccc(NC(=O)CCC(=O)O)c2cc(C)n(Cc3ccc(O)c(C(C)C)c3)c12 [Example 93] | 650 | 260
11 | Cc1ccc(NC(=O)CC(=O)O)c2cc(C(F)(F)F)n(Cc3ccc(O)c(C(C)C)c3)c12 [Example 95] | 98 | 5
12 | Cc1ccc(NC(=O)CC(=O)O)c2cc(C)n(Cc3ccc(O)c(Cc4ccc(F)cc4)c3)c12 [Example 100] | 600 | 28
13 | Cc1ccc(NC(=O)C(=O)O)c2cc(C)n(Cc3ccc(O)c(CCc4ccccc4)c3)c12 [Example 101] | 2200 | 390
14 | Cc1cc(Cn2ccc3c(NC(=O)C(=O)O)ccc(C)c32)cc(C)c1O [Example 103] | 3200 | 860
15 | CC(C)c1cc(Cn2ccc3cc(NC(=O)C(=O)O)ccc32)ccc1O [Example 105] | 970 | 260
16 | Cc1cc(NC(=O)C(=O)O)cc2ccn(Cc3ccc(O)c(C(C)C)c3)c12 [Example 108] | 190 | 54

Row | SMILES | IC50 (recombinant human TRα) [nM] | IC50 (recombinant human TRβ) [nM]
17 | Cc1cc(NC(=O)CC(=O)O)cc2ccn(Cc3ccc(O)c(C(C)C)c3)c12 [Example 109] | > 10000 | 600
18 | CC(C)c1cc(Cn2ncc3c(NC(=O)C(=O)O)cccc32)ccc1O [Example 111] | > 10000 | 1400
19 | CC(C)c1cc(Cc2c[nH]c3c(NC(=O)CC(=O)O)cccc23)ccc1O [Example 113] | > 10000 | 320
20 | Cc1ccc(NC(=O)C(=O)O)c2cc(C)n(Cc3ccc(O)c(C(F)(F)F)c3)c12 [Example 114] | 180 | 49
21 | Cc1ccc(NC(=O)CC(=O)O)c2cc(C)n(Cc3ccc(O)c4ccccc34)c12 [Example 115] | 3600 | 130
22 | CCCc1cc(Cn2c(C)cc3c(NC(=O)C(=O)O)ccc(C)c32)ccc1O [Example 116] | 52 | 9.2
23 | CCCc1cc(Cn2c(C)cc3c(NC(=O)CC(=O)O)ccc(C)c32)ccc1O [Example 117] | 640 | 36
24 | CCc1cc2c(NC(=O)C(=O)O)cccc2n1Cc1ccc(O)c(C(C)C)c1 [Example 118] | 280 | 91
25 | CC(C)c1cc(Cn2c(C(F)(F)F)cc3c(NC(=O)C(=O)O)cccc32)ccc1O [Example 119] | 57 | 15
26 | CC(C)c1cc(Cn2ccc3c(NC(=O)C(=O)O)cc(Br)cc32)ccc1O [Example 120] | 380 | 63
27 | CCC(C)c1cc(Cn2c(C)cc3c(NC(=O)C(=O)O)ccc(C)c32)ccc1O (centres unmarked) [Example 122] | 24 | 2.6
28 | CCC(C)c1cc(Cn2c(C)cc3c(NC(=O)CC(=O)O)ccc(C)c32)ccc1O (centres unmarked) [Example 123] | 170 | 9.4
29 | Cc1ccc(NC(=O)C(=O)O)c2cc(C)n(Cc3ccc(O)c(Cc4ccc(F)cc4)c3)c12 [Example 125] | 66 | 8.7
30 | CCOc1cc(Cn2c(C)cc3c(NC(=O)C(=O)O)ccc(C)c32)ccc1O [Example 126] | 1900 | 320
31 | Cc1ccc(NC(=O)CC(=O)O)c2cc(C)n(Cc3ccc(O)c(C(O)c4ccc(F)cc4)c3)c12 (centres unmarked) [Example 129, N-(1-{3-[(4-fluorophenyl)hydroxymethyl]-4-hydroxybenzyl}-2,7-dimethyl-1H-indol-4-yl)malonamic acid] | 260 | 7.5
